Source: ChEMBL document CHEMBL4425165, “Discovery of Pyrazolo[1,5-a]pyrimidine TTK Inhibitors: CFI-402257 is a Potent, Selective, Bioavailable Anticancer Agent” (ACS Med Chem Lett, 2016)
Values after ≈ are worked out from the molar mass of the structure shown.

Columns and labels:
MDA-MB-468 = experiment: Growth inhibition of human MDA-MB-468 cells measured after 5 days by sulforhodamine B assay; format: functional; details: MDA-MB-468, 120 h
HCT-116 [1] = experiment: Growth inhibition of human HCT116 cells measured after 5 days by sulforhodamine B assay; format: functional; details: HCT-116, 120 h
OVCAR-3 = experiment: Growth inhibition of human OVCAR3 cells measured after 5 days by sulforhodamine B assay; format: functional; details: OVCAR-3, 120 h
[2] = Solubility of the compound at pH 7.4; format: physicochemical; details: buffer
[3] = Solubility of the compound at pH 2; format: physicochemical; details: buffer
[4] = Dissociation constant, pKa of the compound; format: physicochemical
[5] = Cmax in athymic CD-1 nude mouse at 10 mg/kg, po by LC-MS/MS analysis; format: ADME, organism-based; design: dose 10 mg/kg, route oral; details: in vivo
[6] = AUC in athymic CD-1 nude mouse at 10 mg/kg, po by LC-MS/MS analysis; format: ADME, organism-based; details: in vivo
Cytochrome P450 3A4 = Cytochrome P450 3A4 (Homo sapiens, UniProt P08684); experiment: Inhibition of CYP3A4 (unknown origin) preincubated for 10 mins followed by addition of BFC as substrate measured after 10 mins in presence of NADP by fluorescence analysis; format: ADME
Sequence of Cytochrome P450 3A4 (P08684 whole entry): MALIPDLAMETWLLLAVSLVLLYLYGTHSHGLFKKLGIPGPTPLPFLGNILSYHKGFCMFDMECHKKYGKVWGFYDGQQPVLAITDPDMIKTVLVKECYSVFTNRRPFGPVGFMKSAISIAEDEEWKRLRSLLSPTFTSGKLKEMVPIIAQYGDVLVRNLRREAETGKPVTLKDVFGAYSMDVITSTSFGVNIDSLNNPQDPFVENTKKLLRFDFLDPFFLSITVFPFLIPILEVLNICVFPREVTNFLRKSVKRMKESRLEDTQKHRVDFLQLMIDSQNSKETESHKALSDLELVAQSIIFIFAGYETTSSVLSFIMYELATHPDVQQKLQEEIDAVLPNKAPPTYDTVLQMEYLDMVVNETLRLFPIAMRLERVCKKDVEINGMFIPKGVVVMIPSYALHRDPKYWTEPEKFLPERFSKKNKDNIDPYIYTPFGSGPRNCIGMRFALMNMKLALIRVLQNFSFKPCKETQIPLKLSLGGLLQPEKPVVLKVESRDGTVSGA

[7] = Clearance in Sprague-Dawley rat at 1 mg/kg, iv or 5 mg/kg, po by LC-MS/MS analysis; format: ADME, organism-based; details: in vivo
[8] = AUC (0 to infinity) in Sprague-Dawley rat at 5 mg/kg, po by LC-MS/MS analysis; format: ADME, organism-based; design: dose 5 mg/kg, time infinity, route oral; details: in vivo
[9] = Bioavailability in Sprague-Dawley rat at 5 mg/kg by LC-MS/MS analysis; format: ADME, organism-based; details: in vivo
[10] = Clearance in beagle dog at 1 mg/kg, iv or 5 mg/kg, po by LC-MS/MS analysis; format: ADME, organism-based, Canis lupus familiaris; details: in vivo
[11] = AUC (0 to infinity) in beagle dog at 5 mg/kg, po by LC-MS/MS analysis; format: ADME, organism-based, Canis lupus familiaris; design: dose 5 mg/kg, route oral, time infinity; details: in vivo
[12] = Bioavailability in beagle dog at 5 mg/kg by LC-MS/MS analysis; format: ADME, organism-based, Canis lupus familiaris; details: in vivo
HCT-116 [13] = experiment: Antitumor activity against human HCT116 cells xenografted in athymic nude mouse assessed as tumor growth inhibition at 15 mg/kg, po qd measured on day 21; format: functional; details: HCT-116, po, 504 h, read-out: TGI
HT-29 = experiment: Antitumor activity against human HT-29 cells xenografted in athymic nude mouse assessed as tumor growth inhibition at 15 mg/kg, po qd measured on day 21; format: functional; details: HT-29, po, 504 h, read-out: TGI
[14] = Toxicity in po dosed athymic nude mouse; format: organism-based; details: in vivo
[15] = molecular target: T1, Dual specificity protein kinase TTK (Homo sapiens, UniProt P33981)
T1 sequence (P33981 whole entry): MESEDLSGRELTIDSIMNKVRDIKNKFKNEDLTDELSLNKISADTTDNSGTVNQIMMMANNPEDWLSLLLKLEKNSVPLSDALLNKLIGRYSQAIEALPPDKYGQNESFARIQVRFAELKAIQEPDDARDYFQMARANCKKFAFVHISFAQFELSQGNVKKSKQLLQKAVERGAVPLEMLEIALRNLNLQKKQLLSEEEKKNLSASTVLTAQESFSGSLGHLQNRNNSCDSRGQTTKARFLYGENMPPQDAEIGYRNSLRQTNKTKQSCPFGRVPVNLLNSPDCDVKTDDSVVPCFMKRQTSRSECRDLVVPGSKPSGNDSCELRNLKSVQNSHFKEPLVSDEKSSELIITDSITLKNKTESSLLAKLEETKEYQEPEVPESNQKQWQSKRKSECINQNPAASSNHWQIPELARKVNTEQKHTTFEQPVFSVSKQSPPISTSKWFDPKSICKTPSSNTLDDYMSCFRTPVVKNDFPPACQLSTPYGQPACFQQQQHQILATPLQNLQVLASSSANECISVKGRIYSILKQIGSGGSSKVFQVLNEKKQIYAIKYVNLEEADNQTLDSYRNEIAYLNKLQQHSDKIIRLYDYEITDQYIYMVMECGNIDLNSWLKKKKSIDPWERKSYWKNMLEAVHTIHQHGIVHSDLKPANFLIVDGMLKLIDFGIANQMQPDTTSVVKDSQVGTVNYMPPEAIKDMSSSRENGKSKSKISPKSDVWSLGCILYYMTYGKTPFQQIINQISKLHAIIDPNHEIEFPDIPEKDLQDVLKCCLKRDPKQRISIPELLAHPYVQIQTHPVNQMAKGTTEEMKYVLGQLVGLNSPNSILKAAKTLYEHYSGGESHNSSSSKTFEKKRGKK

SMILES	GI50 (MDA-MB-468) [µM]	GI50 (HCT-116 [1]) [µM]	GI50 (OVCAR-3) [µM]	solubility [2] [µg/mL]	solubility [3] [µg/mL]	pKa [4]	Cmax [5] [ng/mL]	AUC [6] [ng·h/mL]	IC50 [15] [µM]	IC50 (Cytochrome P450 3A4) [µM]	clearance [7] [mL/min/kg]	AUC(0-inf) [8] [ng·h/mL]	bioavailability [9] [%]	clearance [10] [mL/min/kg]	AUC(0-inf) [11] [ng·h/mL]	bioavailability [12] [%]	inhibition in vivo at 15 mg/kg (HCT-116 [13]) [%]	inhibition in vivo at 15 mg/kg (HT-29) [%]	MTD [14] [mg/kg]
Cc1cc(-c2cnn3c(NCC4CC4)cc(NC4CCCC[C@H]4O)nc23)ccc1C(=O)NC1CC1 (single isomer, unassigned)	0.02	0.009	0.015	5.3 (≈ 11.2 µM)	170 (≈ 358 µM)	3.4	1700	3100	0.0022	2	22	3700	94	7.9	14000	95	72	53	15
Cc1cc(-c2cnn3c(NCC4CCOCC4)cc(N[C@@H](C4CC4)C(C)(C)O)nc23)ccc1C(=O)NC1CC1	0.06	0.02	0.08	10 (≈ 18.8 µM)	470 (≈ 882 µM)	3.5	5500	20000	0.007	3	66	490	38	13	6900	98	70	38	15
Cc1cc(-c2cnn3c(NCC4CCOCC4)cc(Oc4ccccc4)nc23)ccc1C(=O)NC1CC1	0.013	0.003	0.022	0.5 (≈ 1 µM)	12 (≈ 24.1 µM)	3.4	560	3100	0.0025	–	–	–	–	–	–	–	–	–	–
Cc1cc(-c2cnn3c(NC[C@H]4C[C@](C)(O)C4)cc(Oc4cccnc4)nc23)ccc1C(=O)NC1CC1	0.071	0.04	0.1	3.3 (≈ 6.62 µM)	560 (≈ 1120 µM)	3.7	1800	3900	–	–	–	–	–	–	–	–	–	–	–
Cc1cc(-c2cnn3c(NC[C@H]4CC[C@@H](O)CC4)cc(Oc4cccnc4)nc23)ccc1C(=O)NC1CC1	0.019	0.017	0.043	2.1 (≈ 4.1 µM)	360 (≈ 702 µM)	3.7	750	3400	0.0018	–	–	–	–	–	–	–	–	–	–
Cc1cc(-c2cnn3c(NC[C@H]4C[C@](C)(O)C4)cc(NC4CCCC4)nc23)ccc1C(=O)NC1CC1	0.13	0.049	0.21	3.6 (≈ 7.37 µM)	110 (≈ 225 µM)	3.2	–	–	0.0053	–	–	–	–	–	–	–	–	–	–
Cc1cc(-c2cnn3c(NC[C@H]4C[C@H](O)C4)cc(Oc4cccnc4)nc23)ccc1C(=O)NC1CC1	0.002	0.002	0.011	5.4 (≈ 11.1 µM)	930 (≈ 1920 µM)	3.7	120	130	0.0011	–	–	–	–	–	–	–	–	–	–
Cc1cc(-c2cnn3c(NC[C@H]4CC[C@H](O)CC4)cc(Oc4cccnc4)nc23)ccc1C(=O)NC1CC1	0.16	0.05	0.27	2.1 (≈ 4.1 µM)	360 (≈ 702 µM)	3.7	190	700	0.0028	–	–	–	–	–	–	–	–	–	–

Now from value to molecule, other results behind:

GI50 (MDA-MB-468) [µM]	GI50 (HCT-116 [1]) [µM]	GI50 (OVCAR-3) [µM]	solubility [2] [µg/mL]	solubility [3] [µg/mL]	pKa [4]	Cmax [5] [ng/mL]	AUC [6] [ng·h/mL]	IC50 [15] [µM]	SMILES	IC50 (Cytochrome P450 3A4) [µM]	clearance [7] [mL/min/kg]	AUC(0-inf) [8] [ng·h/mL]	bioavailability [9] [%]	clearance [10] [mL/min/kg]	AUC(0-inf) [11] [ng·h/mL]	bioavailability [12] [%]	inhibition in vivo at 15 mg/kg (HCT-116 [13]) [%]	inhibition in vivo at 15 mg/kg (HT-29) [%]	MTD [14] [mg/kg]
0.18	0.13	0.34	13 (≈ 25.1 µM)	410 (≈ 790 µM)	3.3	–	–	0.013	Cc1cc(-c2cnn3c(NCC4CCOCC4)cc(N[C@@H]4CCCC[C@H]4O)nc23)ccc1C(=O)NC1CC1	–	–	–	–	–	–	–	–	–	–
0.48	0.21	1.1	27 (≈ 54.8 µM)	1100 (≈ 2230 µM)	3.5	–	–	0.021	CC[C@H](CO)Nc1cc(NCC2CCOCC2)n2ncc(-c3ccc(C(=O)NC4CC4)c(C)c3)c2n1	–	–	–	–	–	–	–	–	–	–
0.16	0.014	0.19	1.1 (≈ 2.21 µM)	1.5 (≈ 3.01 µM)	1.6	890	1500	0.0014	Cc1cc(-c2cnn3c(NCC4CCOCC4)nc(Oc4ccccc4)nc23)ccc1C(=O)NC1CC1	–	–	–	–	–	–	–	–	–	–
0.036	0.015	0.09	3.1 (≈ 6.34 µM)	88 (≈ 180 µM)	3.2	2300	4000	0.0032	Cc1cc(-c2cnn3c(NCC4CCOCC4)cc(NC4CCCC4)nc23)ccc1C(=O)NC1CC1	–	–	–	–	–	–	–	–	–	–
0.003	0.001	0.009	13 (≈ 25.1 µM)	410 (≈ 790 µM)	3.3	2200	2400	0.002	Cc1cc(-c2cnn3c(NCC4CCOCC4)cc(N[C@H]4CCCC[C@H]4O)nc23)ccc1C(=O)NC1CC1	–	–	–	–	–	–	–	–	–	–
0.035	0.014	0.068	5.4 (≈ 11.4 µM)	930 (≈ 1960 µM)	3.7	180	130	0.0024	Cc1cc(-c2cnn3c(NC[C@H]4C[C@H](O)C4)cc(NC4CCCC4)nc23)ccc1C(=O)NC1CC1	–	–	–	–	–	–	–	–	–	–
0.32	0.13	0.48	3.6 (≈ 7.35 µM)	28 (≈ 57.2 µM)	2.7	430	530	0.0058	Cc1cc(-c2cnn3c(NCC4CCOCC4)nc(NC4CCCC4)nc23)ccc1C(=O)NC1CC1	–	–	–	–	–	–	–	–	–	–
0.018	0.011	0.024	1.6 (≈ 3.12 µM)	12000 (≈ 23400 µM)	6.7	1000	2700	0.003	Cc1cc(-c2cnn3c(NCCN4CCOCC4)cc(Oc4ccccc4)nc23)ccc1C(=O)NC1CC1	–	–	–	–	–	–	–	–	–	–
0.062	0.059	0.079	23 (≈ 45.6 µM)	480 (≈ 951 µM)	3.2	1300	1500	0.0027	Cc1cc(-c2cnn3c(NCC4CCOCC4)cc(N[C@H]4CCC[C@H]4O)nc23)ccc1C(=O)NC1CC1	–	–	–	–	–	–	–	–	–	–
0.057	0.014	0.087	3.6 (≈ 7.37 µM)	110 (≈ 225 µM)	3.2	2900	7300	0.0026	Cc1cc(-c2cnn3c(NC[C@H]4C[C@@](C)(O)C4)cc(NC4CCCC4)nc23)ccc1C(=O)NC1CC1	–	–	–	–	–	–	–	–	–	–
